Laboratory results from ChEMBL document CHEMBL1201862, “PubChem BioAssay data set” (2004).
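Method: 48-hour compound exposure of cells in 96-well plates, five concentrations, linear interpolation of endpoints. GI50: concentration for 50% inhibition of growth.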 Activity calls are given as the source filed them. No stated cut-off is given here; in the data, active = GI50 up to about 1.1 µM and inactive = higher.

Experiments:
Test in all cases: DTP human tumour cell line panel, 48 h
HCC 2998 = test system: HCC 2998
BT-549 = test system: BT-549
RXF 393 = test system: RXF 393
NCI-H522 = test system: NCI-H522
MCF7 = test system: MCF7
A498 = test system: A498
UACC-62 = test system: UACC-62
A549 = test system: A549
HCT-116 = test system: HCT-116
PC-3 = test system: PC-3
ACHN = test system: ACHN
SR = test system: SR
LOX IMVI = test system: LOX IMVI
DU-145 = test system: DU-145
SF-295 = test system: SF-295
NCI-H460 = test system: NCI-H460
MDA-N = test system: MDA-N
SK-MEL-2 = test system: SK-MEL-2
MDA-MB-435 = test system: MDA-MB-435
OVCAR-4 = test system: OVCAR-4
MDA-MB-231 = test system: MDA-MB-231
SK-MEL-5 = test system: SK-MEL-5
M14 = test system: M14
NCI-H23 = test system: NCI-H23
EKVX = test system: EKVX
SW-620 = test system: SW-620
RPMI-8226 = test system: RPMI-8226
Hs-578T = test system: Hs-578T
COLO 205 = test system: COLO 205
OVCAR-3 = test system: OVCAR-3
U-251 = test system: U-251
786-0 = test system: 786-0
HOP-62 = test system: HOP-62
SK-OV-3 = test system: SK-OV-3
CCRF-CEM = test system: CCRF-CEM
HL-60 = test system: HL-60
NCI-H226 = test system: NCI-H226
KM12 = test system: KM12
TK-10 = test system: TK-10
SNB-19 = test system: SNB-19
HCT-15 = test system: HCT-15
SF-539 = test system: SF-539
T47D = test system: T47D
CAKI-1 = test system: CAKI-1
IGROV-1 = test system: IGROV-1
UACC-257 = test system: UACC-257
OVCAR-5 = test system: OVCAR-5
SNB-75 = test system: SNB-75
HOP-92 = test system: HOP-92
OVCAR-8 = test system: OVCAR-8
SF-268 = test system: SF-268
MOLT-4 = test system: MOLT-4
UO-31 = test system: UO-31
SN12C = test system: SN12C
HT-29 = test system: HT-29
SK-MEL-28 = test system: SK-MEL-28
K562 = test system: K562
Malme-3M = test system: Malme-3M
NCI/ADR-RES = test system: NCI/ADR-RES

In the case of `COC(=O)CN(CC(O)C(NC(C)=O)C(O)C=O)C(=O)OCc1ccccc1` (stereo not drawn), the GI50 (HCC 2998) is reported as > 100 µM (inactive), the GI50 (BT-549) is reported as > 100 µM (inactive) and the GI50 (RXF 393) is reported as > 100 µM (inactive). For the same compound, the GI50 (NCI-H522) was > 100 µM (inactive), the GI50 (MCF7) was > 100 µM (inactive) and the GI50 (A498) was > 100 µM (inactive). The GI50 (UACC-62) was > 100 µM (inactive), the GI50 (A549) was > 100 µM (inactive) and the GI50 (HCT-116) was > 100 µM (inactive). The GI50 (PC-3) was > 100 µM (inactive), the GI50 (ACHN) was > 100 µM (inactive) and the GI50 (SR) was > 100 µM (inactive). The GI50 (LOX IMVI) was > 100 µM (inactive), the GI50 (DU-145) was > 100 µM (inactive) and the GI50 (SF-295) was > 100 µM (inactive). For the same compound, the GI50 (NCI-H460) was > 100 µM (inactive), the GI50 (MDA-N) was > 100 µM (inactive) and the GI50 (SK-MEL-2) was > 100 µM (inactive). For the same compound, the GI50 (MDA-MB-435) was > 100 µM (inactive), the GI50 (OVCAR-4) was > 100 µM (inactive) and the GI50 (MDA-MB-231) was > 100 µM (inactive). The GI50 (SK-MEL-5) was > 100 µM (inactive), the GI50 (M14) was > 100 µM (inactive) and the GI50 (NCI-H23) was > 100 µM (inactive). The GI50 (EKVX) was > 100 µM (inactive), the GI50 (SW-620) was > 100 µM (inactive) and the GI50 (RPMI-8226) was > 100 µM (inactive). For the same compound, the GI50 (Hs-578T) was > 100 µM (inactive), the GI50 (COLO 205) was > 100 µM (inactive) and the GI50 (OVCAR-3) was > 100 µM (inactive). For the same compound, the GI50 (U-251) was > 100 µM (inactive), the GI50 (786-0) was > 100 µM (inactive) and the GI50 (HOP-62) was > 100 µM (inactive). The GI50 (SK-OV-3) was > 100 µM (inactive), the GI50 (CCRF-CEM) was > 100 µM (inactive) and the GI50 (HL-60) was > 100 µM (inactive). For the same compound, the GI50 (NCI-H226) was > 100 µM (inactive), the GI50 (KM12) was > 100 µM (inactive) and the GI50 (TK-10) was > 100 µM (inactive). For the same compound, the GI50 (SNB-19) was > 100 µM (inactive), the GI50 (HCT-15) was over 31.6 µM and the GI50 (SF-539) was > 100 µM (inactive). The GI50 (T47D) was > 100 µM (inactive), the GI50 (CAKI-1) was > 100 µM (inactive) and the GI50 (IGROV-1) was > 100 µM (inactive). For the same compound, the GI50 (UACC-257) was > 100 µM (inactive), the GI50 (OVCAR-5) was > 100 µM (inactive) and the GI50 (SNB-75) was > 100 µM (inactive). For the same compound, the GI50 (HOP-92) was > 100 µM (inactive), the GI50 (OVCAR-8) was > 100 µM (inactive) and the GI50 (SF-268) was > 100 µM (inactive). The GI50 (MOLT-4) was > 100 µM (inactive), the GI50 (UO-31) was > 100 µM (inactive) and the GI50 (SN12C) was > 100 µM (inactive). For the same compound, the GI50 (HT-29) was > 100 µM (inactive), the GI50 (SK-MEL-28) was > 100 µM (inactive) and the GI50 (K562) was > 100 µM (inactive). The GI50 (Malme-3M) was > 50.5 µM (inactive) and the GI50 (NCI/ADR-RES) was > 100 µM (inactive).

In the case of `O=[N+]([O-])c1cccc2nc3ccccc3c(NCCC[N+]3([O-])CCCCC3)c12`, the GI50 (HCC 2998) is reported as 0.136 µM (active), the GI50 (BT-549) is reported as 0.501 µM (active) and the GI50 (RXF 393) is reported as 0.647 µM (active). The GI50 (NCI-H522) was 0.134 µM (active), the GI50 (MCF7) was 0.176 µM (active) and the GI50 (A498) was 0.804 µM (active). The GI50 (UACC-62) was 0.272 µM (active), the GI50 (A549) was 0.521 µM (active) and the GI50 (HCT-116) was 0.261 µM (active). The GI50 (PC-3) was 0.255 µM (active), the GI50 (ACHN) was 5.37 µM (inactive) and the GI50 (SR) was 0.0479 µM (active). For the same compound, the GI50 (LOX IMVI) was 0.46 µM (active), the GI50 (DU-145) was 0.35 µM (active) and the GI50 (SF-295) was 3.06 µM (inactive). For the same compound, the GI50 (NCI-H460) was 0.279 µM (active), the GI50 (MDA-N) was 0.176 µM (active) and the GI50 (SK-MEL-2) was 0.179 µM (active). For the same compound, the GI50 (MDA-MB-435) was 0.18 µM (active), the GI50 (OVCAR-4) was 0.315 µM (active) and the GI50 (MDA-MB-231) was 0.351 µM (active). The GI50 (SK-MEL-5) was 0.36 µM (active), the GI50 (M14) was 1.2 µM (inactive) and the GI50 (NCI-H23) was 0.232 µM (active). For the same compound, the GI50 (EKVX) was 0.438 µM (active), the GI50 (SW-620) was 0.468 µM (active) and the GI50 (RPMI-8226) was 0.308 µM (active). The GI50 (Hs-578T) was 0.82 µM (active), the GI50 (COLO 205) was 0.143 µM (active) and the GI50 (OVCAR-3) was 0.281 µM (active). The GI50 (U-251) was 0.289 µM (active), the GI50 (786-0) was 0.438 µM (active) and the GI50 (HOP-62) was 0.927 µM (active). The GI50 (SK-OV-3) was 1.02 µM (active), the GI50 (CCRF-CEM) was 0.546 µM (active) and the GI50 (HL-60) was 0.745 µM (active). For the same compound, the GI50 (NCI-H226) was 0.592 µM (active), the GI50 (KM12) was 0.349 µM (active) and the GI50 (TK-10) was 3.06 µM (inactive). The GI50 (SNB-19) was 0.638 µM (active), the GI50 (HCT-15) was 16 µM and the GI50 (SF-539) was 0.479 µM (active). The GI50 (T47D) was 0.41 µM (active), the GI50 (CAKI-1) was 20 µM (inactive) and the GI50 (IGROV-1) was 0.394 µM (active). For the same compound, the GI50 (UACC-257) was 0.244 µM (active), the GI50 (OVCAR-5) was 0.498 µM (active) and the GI50 (SNB-75) was 0.416 µM (active). The GI50 (HOP-92) was 0.275 µM (active), the GI50 (OVCAR-8) was 1.85 µM (inactive) and the GI50 (SF-268) was 0.323 µM (active). For the same compound, the GI50 (MOLT-4) was 0.198 µM (active), the GI50 (UO-31) was 12.9 µM (inactive) and the GI50 (SN12C) was 0.39 µM (active). For the same compound, the GI50 (HT-29) was 0.301 µM (active), the GI50 (SK-MEL-28) was 0.502 µM (active) and the GI50 (K562) was 1.1 µM (active). For the same compound, the GI50 (Malme-3M) was 0.168 µM (active) and the GI50 (NCI/ADR-RES) was > 100 µM (inactive).
